The subject of data set [1] is RAW264.7. The experiment in a line: Selectivity index, ratio of CC50 for mouse RAW264.7 cells to antiinflammatory IC50 for mouse RAW264.7 cells. In kind it is functional.
Data set [2] in a line: Antiinflammatory activity in mouse RAW264.7 cells assessed as inhibition of LPS-induced NO production after 24 hrs in presence of LPS by Griess reagent based assay. In kind it is functional, cell-based. To be noted: RAW264.7, 24 h.
Data set [3] in a line: Cytotoxicity against mouse RAW264.7 cells assessed as reduction in cell viability after 48 hrs by MTT assay. In kind it is toxicity.

A value given as a limit tells only on which side of the number the result lay.

As for `CC1=CC(=O)O[C@@]12C[C@@H]1[C@@]3(C)CCCC(C)(C)[C@@H]3C[C@H](O)[C@@]1(C)O2`, the “Ratio CC50/IC50” value in data set [1] is reported as more than 2.2. Further, the half-inhibitory concentration (IC50) in data set [2] amounted to 44.6 µM. Moreover, in data set [3], the CC50 at 48 h was more than 100 µM.
Regarding `C/C(C=O)=C\C[C@H]1[C@](C)(O)[C@@H](O)C[C@H]2C(C)(C)CCC[C@@]21C`, the “Ratio CC50/IC50” value in data set [1] was more than 1.1. Also, in data set [2], the 50% inhibitory concentration (IC50) was 93 µM. For the same compound, the half-maximal cytotoxic concentration (CC50) at 48 h in data set [3] is more than 100 µM.
`C/C(=C\CO)[C@H]1C[C@@H]2[C@@]3(C)CCCC(C)(C)[C@@H]3C[C@H](O)[C@@]2(C)O1`: in data set [1], the “Ratio CC50/IC50” value was more than 2.3. Besides, the concentration for half-maximal inhibition (IC50) in data set [2] stood at 42.7 µM. Besides, in data set [3], the half-maximal cytotoxic concentration (CC50) at 48 h is more than 100 µM.
Take `C=C/C(C)=C/C[C@H]1[C@](C)(O)[C@@H](O)C[C@H]2C(C)(C)CCC[C@@]21C`: the “Ratio CC50/IC50” value in data set [1] came out at 1.9. Besides, the IC50 in data set [2] turned out to be 49.3 µM. In data set [3], the CC50 at 48 h came to 94.5 µM.
As to `CC1=CC(=O)O[C@]12C[C@@H]1[C@@]3(C)CCCC(C)(C)[C@@H]3C[C@H](O)[C@@]1(C)O2`, the “Ratio CC50/IC50” value in data set [1] was more than 2. Also, the IC50 in data set [2] is 49.6 µM. Moreover, the CC50 at 48 h in data set [3] is more than 100 µM.
With `COc1ccc2c(c1)c(CC(=O)O)c(C)n2C(=O)c1ccc(Cl)cc1` [INDOMETHACIN], the “Ratio CC50/IC50” value in data set [1] was more than 12.1. Moreover, in data set [2], the half-maximal inhibitory concentration (IC50) is 16.5 µM. Moreover, in data set [3], the half-maximal cytotoxic concentration (CC50) at 48 h was more than 200 µM.
